Source: patent publication US11958869B2, “Ruthenium arene Schiff-base complexes and uses thereof” (CITY UNIVERSITY OF HONG KONG, priority 2021, dated 2024)
Where two headings read alike, the source gives them in different places.

Assays:
[1] = system: human hepatocellular carcinoma LM3 xenografts; test: Hepatocellular carcinoma LM3 xenograft model; format: in vivo, athymic NCr nude mice; details: all doses tested, FIG. 8
Procedure: (§1) Hepatocellular carcinoma LM3 cells (5×10^4 cells/20 μL) or breast cancer MDM-BA-231 cells (5×10^4 cells/20 μL) were implanted subcutaneously in the flanks of athymic NCr nude mice. A total of 40 male NCr nude mice (8 weeks or older weighing 20-24 g or more) were used for the tumor xenografts. The tested compounds (e.g., Ru^TEN 1, Ru^TEN 3, or salinomycin) were intraperitoneally administered at the dose of […] twice per week. Tumor volume was determined by image analysis. The mice in the control group received corresponding injection of 0.1% DMSO. For tumor-bearing NCr nude mice during the 4-weeks (or 28 days) experiment, the % body weight changes refer to: (the total weight on reading day/the total weight on day treatment started)×100. All mice were sacrificed at the end of the experiment (i.e., by the end of 28 days), and tissues including lung, liver, tumor, heart, brain, kidneys, spleen and colon were harvested, and checked for any sign of cancer metastasis.

MDA-MB-231 mammospheres [2] = test: Invasion / dispersion of spheroids into 3D collagen; format: cell-based; details: cells incubated with compound 72 hr, FIG. 4
Excerpt: CSCs are associated with highly invasive phenotype and it is believed that this subset of cancer cells gives rise to metastases. In order to monitor the dissemination of MCF-7 and MDA-MB-231 breast cancer spheroids, the spheroids were embedded into three-dimensional (3D) collagen scaffold using Aim Biotech 3D cell culture chips. Collagen with spheroids was introduced into the central region of the microfluidic system where it polymerized via thermal cross-linking. Cell culture media was introduced into media channels forcing spheroids to move through collagen towards the media.
Thus, whether Ru^TEN complexes and salinomycin affected the invasive properties of MDA-MB-231 spheroids was then investigated. To this purpose, MDA-MB-231 monolayer cells were incubated with compounds of interest (e.g., Ru^TEN complexes of Examplel or salinomycin) for 72 hr, then the delamination was allowed to proceed for over 28 hr. Results are depicted in FIG. 4.

MCF-7 mammospheres = test: Mammosphere formation assay, MCF-7; format: cell-based; details: for Number of MCF-7 mammospheres / Size (μm) of MCF-7 mammospheres: primary mammospheres grown 96 hr, incubated with compound 72 hrs, >50 μm analyzed
Procedure: (§2) Since the breast cancer stem cells formed a mass of colonies in the form of floating spheres without attaching to a surface of a plate, the size and number of the masses were observed by a mammosphere formation assay to determine a cancer-stem-cell-specific effect.
(§3) Single-cell suspension was cultured at a density of 1,000 to 15,000 cells/well using a MammoCult™ Human Medium kit (Stemcell Technologies Inc Vancouver, CA), and the spherical cells were counted and observed under a microscope.
(§4) The mammosphere assay is based on the concept that when cells proliferate in three-dimensional spheroid structures, only cancer cells with stem-like characteristics are able to evade anoikis.

[3] = system: MDA-MB-231 secondary mammospheres; test: Secondary mammosphere formation (self-renewal), MDA-MB-231; format: cell-based; details: for Number of MDA-MB-231 secondary mammospheres / Size (μm) of MDA-MB-231 secondary mammospheres: from drug-treated primary mammospheres, grown in drug-free conditions for 7 days; for propensity to form secondary mammospheres: single cells from drug-treated primary mammospheres, 7 days drug-free, FIG. 2
Procedure: To this purpose, drug-treated primary MDA-MB-231 mammospheres were dissociated into single cell suspensions and incubated for 7 days in ultralow attachment drug-free conditions.

MDA-MB-231 = test: Anti-proliferative activity (MTT assay), MDA-MB-231; format: cell-based
Procedure: (§5) Cells were seeded in 96-well plates and maintained for 14-16 hours, then were treated with dimethylsulfoxide (DMSO) or test compound at various concentrations (i.e., 0.312, 1.25, 5, 20 μM) for 72 hrs. The cells were then washed with phosphate buffer saline (PBS) twice, added a medium containing 3-(4,5-dimethylthiazol-2-yl)-2,5-diphenyltetrazolium bromide (MTT) at a final concentration of 0.5 mg/mL, and incubated for 4 hr at 37° C. in a humidified incubator containing 5% CO2 in air. Cells having functional succinate dehydrogenase of mitochondria would convert MTT to formazan. Then, the medium was replaced with 100 μL of DMSO for 30 min at room temperature, and the 96-well plate was read by an ELISA reader at 550 nm to get the absorbance density values. The IC50 values of death cell lines were calculated accordingly.
(§6) The Ru^TEN complexes of Example 1 were evaluated for their anti-proliferative properties in two breast cancer cell lines, namely, MCF-7 and MDA-MB-231 cells via MTT assay. […] MCF-7 is a chemotherapy-responsive breast cancer cell line of luminal subtype with high expression of estrogen receptor (ER), whereas MDA-MB-231 is a triple negative breast cancer (TNBC) or basal-like breast cancer cell ine. TNBC is defined as highly invasive cancer that lacks expression of ER, progesterone receptor (PR) and Her-2; it has one of the worst outcomes among all subtypes of breast cancers. The aggressive nature of TNBC may be related to the presence of breast cancer stem cells within the tumor; therefore, MDA-MB-231 cells are often used as a model of mammary cancer stem cells.
(§7) The cytotoxicity of Ru^TEN complexes of Example 1 was compared to that of cisplatin or oxaliplatin, which were known to induce their anticancer effects by the mode of action different from ER stress. Three CSC-selective organic compounds, salinomycin, etoposide and abamectin, were also used for comparison. Briefly, MCF-7 and MDA-MB-231 cells were respectively treated with increasing concentrations of compounds of interest for 24 or 72 hrs and then the cell viability was measured.

MDA-MB-231 mammospheres [4] = test: Mammosphere formation assay, MDA-MB-231 primary; format: cell-based; details: for Number of MDA-MB-231 mammospheres / Size (μm) of MDA-MB-231 mammospheres: primary mammospheres grown 96 hr, incubated with compound 72 hrs, >50 μm analyzed; for decrease in number of MDA-MB-231 mammospheres / decrease in size of MDA-MB-231 mammospheres: versus control
Procedure: as §2, §3, §4

MCF-7 = test: cells; format: cell-based; details: read-out: IC50 (μM) MCF-7 72 h
Procedure: as §5, §6, §7

MDA-MB-231 mammospheres [5] = test: Cytotoxicity in MDA-MB-231 mammospheres (Table 2); format: cell-based; details: read-out: IC50 (μM) MDA-MB-231 mammospheres 72 h
MDA-MB-231 mammospheres [6] = test: Viability of MDA-MB-231 mammospheres, Alamar Blue assay (Table 1); format: cell-based; details: read-out: IC50 (μM), growth of MDA-MB-231 mammospheres
[7] = system: ALDHbright subpopulation of MDA-MB-231 cells; test: ALDEFLUOR assay (ALDH activity); format: cell-based; details: versus control, FIG. 3
Procedure: The cells were stained with […] bodipy-aminoacetaldehyde (BAAA), and then cultured at 37° C. for 45 minutes. An ALDH1 inhibitor, diethyl aminobenzaldehyde (DEAB), was used as the negative control. The stained cells were assayed using BD FACS Aria III. In this case, the positive fluorescent ALDH1-expressed cells (ALDH+) were detected in a green fluorescent channel (520 to 540 nm).
While CD44+/CD24−/low phenotype has often been associated with breast CSC/progenitor cell features, yet there is no correlation between the presence of CD44+/CD24−/low cells and clinical outcome and formation of distant metastases. It is the presence of aldehyde dehydrogenase (ALDH) bright cells which separates highly tumorigenic CD44+/CD24−/low/ALDHbright population from non-tumorigenic cells. Unlike CD44+/CD24−/low, ALDH is a predictor of metastasis and is associated with a poor clinical outcome. The main role of ALDH enzymes is the detoxification of aldehydes generated in various metabolic processes into carboxylic acids. However, several ALDH isoforms are involved in retinoic acid signaling and this particular function was linked to the “stemness” of CSCs. The functional activity of ALDHs can be accurately determined by ascertaining the cellular conversion of […] (BAAA) into a fluorescent molecule BODIPY-aminoacetate (BAA). ATP-binding cassette (ABC)-transporter inhibitors in the assay buffer prevent the efflux of BAA from the cells, resulting in the accumulation of BAA in cytoplasm.

[8] = system: human MD-MBA-231 breast cancer xenografts; test: Breast cancer MDA-MB-231 xenograft model; format: in vivo, athymic NCr nude mice; details: doses tested, FIG. 11
Procedure: as §1
Results are depicted in FIGS. 9 to 11.

[9] = Ru biodistribution in tumor-bearing mice; format: in vivo; details: FIG. 6
Excerpt: The Ru biodistribution in tumor-bearing mice treated with Ru^TEN3 was also investigated.

[10] = Acute toxicity, tolerated dose in Balb/c mice; format: in vivo
Procedure: In this example, Ru^TEN3 was subjected to in vivo studies with Balb/c mice. Various treatment regimens were explored to define the optimally tolerated dose of Ru^TEN3 in vivo. […] The body weight changes were recorded.

[11] = 24 h, MTT, read-out: IC50 (μM) MDA-MB-231 24 h
[12] = 72 h, MTT, read-out: IC50 (μM) MDA-MB-231 72 h

CC(C)c1cc(C(C)C)cc(C(C)C)c1.COc1ccc([N+]2=Cc3ccc4ccccc4[n+]3[Ru-]2[Cl])cc1.[Cl-] [Ru^TEN1, [(η6-1,3,5-triisopropybenzene)RuCl(4-methoxy-N-(2-quinolinyl-methylene)-aniline)]Cl]
body weight of LM3 tumor-bearing mice [1]: neither Ru^TEN1 nor Ru^TEN3 had caused lost in body weight | dispersion of cells into collagen after 4 hr (MDA-MB-231 mammospheres [2]): did not exhibit significant dispersion | dispersion of cells into collagen after 28 hr / entire incubation period (MDA-MB-231 mammospheres [2]): only slight dispersion | Number of MCF-7 mammospheres (MCF-7 mammospheres): 238 ± 86 | Size (μm) of MCF-7 mammospheres (MCF-7 mammospheres): 130 ± 15 μm | Number of MDA-MB-231 secondary mammospheres [3]: 102 ± 28 | Size (μm) of MDA-MB-231 secondary mammospheres [3]: 69 ± 3 μm | propensity to form secondary mammospheres [3]: drastically reduced propensity to form secondary mammospheres | IC50 (MDA-MB-231; [11]): 1.2 ± 0.1 µM | IC50 (MDA-MB-231; [12]): 0.28 ± 0.1 µM | Number of MDA-MB-231 mammospheres (MDA-MB-231 mammospheres [4]): 103 ± 41 | Size (μm) of MDA-MB-231 mammospheres (MDA-MB-231 mammospheres [4]): 93 ± 29 μm | decrease in number of MDA-MB-231 mammospheres (MDA-MB-231 mammospheres [4]): 20% | decrease in size of MDA-MB-231 mammospheres (MDA-MB-231 mammospheres [4]): 18% | IC50 (MCF-7; 72 h, MTT): 0.68 ± 0.23 µM | IC50 (MDA-MB-231 mammospheres [5]; 72 h): 1.4 ± 0.1 µM | IC50 (MDA-MB-231 mammospheres [6]): 2.2 µM

CC[C@@H](C(=O)[C@@H](C)[C@@H](O)[C@H](C)[C@@H]1O[C@@H]([C@@H](CC)C(=O)O)CC[C@@H]1C)[C@H]1O[C@]2(C=C[C@@H](O)[C@]3(CC[C@@](C)([C@H]4CC[C@](O)(CC)[C@H](C)O4)O3)O2)[C@H](C)C[C@@H]1C [Saliomycin, salinomycin]
dispersion of cells into collagen after 4 hr (MDA-MB-231 mammospheres [2]): did not exhibit significant dispersion | dispersion of cells into collagen after 28 hr / entire incubation period (MDA-MB-231 mammospheres [2]): only slight dispersion | Number of MCF-7 mammospheres (MCF-7 mammospheres): 176 ± 73 | Size (μm) of MCF-7 mammospheres (MCF-7 mammospheres): 117 ± 21 μm | decrease in number of MCF-7 mammospheres (MCF-7 mammospheres; versus control): 33% | decrease in size of MCF-7 mammospheres (MCF-7 mammospheres; versus control): 9% | Number of MDA-MB-231 secondary mammospheres [3]: 224 ± 74 | Size (μm) of MDA-MB-231 secondary mammospheres [3]: 82 ± 8 μm | propensity to form secondary mammospheres [3]: only slight changes in size and number of mammospheres | reduction of ALDHbright sub-population [7]: 89% | IC50 (MDA-MB-231; Homo sapiens, MDA-MB-231, 24 h, read-out: IC50 (μM) MDA-MB-231 24 h): 31 ± 4 µM | IC50 (MDA-MB-231; Homo sapiens, MDA-MB-231, 72 h, read-out: IC50 (μM) MDA-MB-231 72 h): 0.56 ± 0.09 µM | Number of MDA-MB-231 mammospheres (MDA-MB-231 mammospheres [4]): 87 ± 28 | Size (μm) of MDA-MB-231 mammospheres (MDA-MB-231 mammospheres [4]): 84 ± 25 μm | decrease in number of MDA-MB-231 mammospheres (MDA-MB-231 mammospheres [4]): 30% | decrease in size of MDA-MB-231 mammospheres (MDA-MB-231 mammospheres [4]): 30% | IC50 (MCF-7; Homo sapiens, MCF7, 72 h): 0.51 ± 0.03 µM | body weight / toxicity in MDA-MB-231 tumor-bearing mice [8]: low toxicity | IC50 (MDA-MB-231 mammospheres [5]; Homo sapiens, MDA-MB-231, 72 h): 8.3 ± 2.4 µM

[(η6-1,3,5-triisopropybenzene)RuCl(3-chloro-N-(2-quinolinylmethylene)-aniline)]Cl [Ru^TEN3]
body weight of LM3 tumor-bearing mice [1]: neither Ru^TEN1 nor Ru^TEN3 had caused lost in body weight | dispersion of cells into collagen after 28 hr / entire incubation period (MDA-MB-231 mammospheres [2]): did not migrate from the spheroids | Number of MCF-7 mammospheres (MCF-7 mammospheres): 183 ± 32 | Size (μm) of MCF-7 mammospheres (MCF-7 mammospheres): 122 ± 16 μm | decrease in number of MCF-7 mammospheres (MCF-7 mammospheres; versus control): 30% | Number of MDA-MB-231 secondary mammospheres [3]: 81 ± 9 | Size (μm) of MDA-MB-231 secondary mammospheres [3]: 67 ± 4 μm | propensity to form secondary mammospheres [3]: drastically reduced propensity to form secondary mammospheres | Ru accumulation in tissues [9]: highest Ru accumulation was observed in spleen and liver, followed by kidney and colon | Ru content in the brain [9]: very low | body weight and condition ([10]; 5 μmol/kg intraperitoneally twice a week for 33 days): did not demonstrate any weight loss | body weight and condition ([10]; 10 μmol/kg intraperitoneally twice a week for 33 days): did not demonstrate any weight loss | body weight and condition ([10]; 20 μmol/kg intraperitoneally twice a week): experienced severe pain, stopped moving, thus were euthanized | IC50 (MDA-MB-231; [11]): 4.5 ± 0.8 µM | IC50 (MDA-MB-231; [12]): 1.5 ± 0.3 µM | Number of MDA-MB-231 mammospheres (MDA-MB-231 mammospheres [4]): 50 ± 21 | Size (μm) of MDA-MB-231 mammospheres (MDA-MB-231 mammospheres [4]): 76 ± 19 μm | decrease in number of MDA-MB-231 mammospheres (MDA-MB-231 mammospheres [4]): 35% | decrease in size of MDA-MB-231 mammospheres (MDA-MB-231 mammospheres [4]): 60% | IC50 (MCF-7; 72 h, MTT): 4.4 ± 0.4 µM | body weight / toxicity in MDA-MB-231 tumor-bearing mice [8]: low toxicity | IC50 (MDA-MB-231 mammospheres [5]; 72 h): 1.7 ± 0.3 µM | IC50 (MDA-MB-231 mammospheres [6]): 2.7 µM
